Series [1] concerns human myelogenous leukemic cells (HL-60). The series can be described thus: Inhibition of proliferation of human myelogenous leukemic cells (HL-60), Trypan Blue staining. The note with it: for Surviving Cell Number: stationary culture at 37°C for 4 days, start 1 x 10^5 cells/ml, control 44.0 x 10^4; for inhibition at 5 µg/mL: Homo sapiens. It is filed as cell-based. Here is the method: The test on the inhibition of the proliferation of human myelogenous leukemic cells was conducted by a well known method. The human myelogenous leukemic cells (HL-60) were added to an RPMI culture solution containing 10% bovine fetal serum, the number of cells in the culture solution was adjusted to 1 x 10^5 cells/ml, a solution in ethanol of the compound under test was added to give a concentration of 5µg/ml, and the mixture was subjected to stationary culture at 37°C for 4 days. As a control, a culture solution containing 0.1% of ethanol was similarly cultured. The culture solutions were stained by the Trypan Blue staining method and the surviving cell number was measured to determine the degree of inhibition relative to the control.

Series [2] in a line: Blood pressure depression after intravenous administration to the allobarbital-anesthetized dog. Format: in vivo.
A short description of series [3]: Acute toxicity by intraperitoneal administration. Particulars: mouse, in vivo, ip; intraperitoneal administration in mice. The method, then: The acute toxicity of the compounds of the present invention was >50 mg/kg by intraperitoneal administration, so that the prostaglandin D derivatives of the present invention may be considered to be sufficiently safe and suitable for medical use.

The mark [4] stands for this setting: 96 h, HL-60, 5 µg/ml, 37°C for 4 days, relative to control (0.1% ethanol), b55 gives the same values in %, read-out: Degree of Inhibition.
Where [5] appears, read: HL-60, concentration of 5 µg/ml, read-out: inhibited the proliferation of the leukemic cells.
[6] abbreviates: dosage of 10 µg/kg animal body weight.

Each structure is given as a SMILES string. Where two headings read alike, the source gives them in different places.

The term LD50 denotes the dose expected to kill half of the subjects tested. Higher therefore signals lower toxicity. Take `CCCCCC=CC=C1C(=O)C=CC1CC=CCCCC(=O)O` (stereo not shown) [(5Z,9Z,14EZ)-11-oxoprosta-5,9,12,14-tetraenoic acid]: the “Surviving Cell Number” value in series [1] (HL-60, 5 µg/ml) was 3 x 10^4 cells/ml. In addition, the inhibition at 5 µg/mL in series [1] (setting [4]) and in series [1] (setting [5]) was 93.2% each time. Besides, the blood pressure depression result in series [2] (dosage of 100 µg/kg animal body weight) was “did not cause blood pressure depression”. The same molecule displayed an LD50 in series [3] of 78 mg/kg.

Regarding `CCCCC[C@H](O)/C=C/[C@H]1C(=O)C[C@H](O)[C@@H]1C/C=C\CCCC(=O)O` [PGD2, prostaglandin D2], the “Surviving Cell Number” value in series [1] (HL-60, 5 µg/ml) is on record as 19.5 x 10^4 cells/ml. Further, the inhibition at 5 µg/mL in series [1] (setting [4]) is 55.6%. In addition, the inhibition at 5 µg/mL in series [1] (setting [5]) came out at 55.6%. Further, in series [2] (setting [6]), the blood pressure depression is recorded as 26 mm Hg and the “duration of blood pressure depression effect” value came out at 6 min.

Source of the values: EP0097023A2, “Prostaglandin D derivatives, process for their preparation and compositions containing them” (ONO PHARMACEUTICAL CO., LTD., priority 1982, dated 1983).
